Laboratory results published in US20220304926A1, “PHARMACEUTICAL COMPOSITION COMPRISING A COLLOIDAL DISPERSION AND METHODS AND USES THEREOF” (PREBONA AB, priority 2019, published 2022).

Legend:
[1] = system: HCV subgenomic RNA replicon of genotype 1b in Huh7^A2HCV^Rep cells; experiment: Luciferase activity assay, HCV replicon in vitro replication; format: cell-based; details: Hepatitis C virus, 500 nM
Text: A hepatoma cell line (Huh7-Lunet) designated Lunet-HlaA2-luc/neoET (Huh7^A2HCV^Rep) and Lunet-HlaA2 (Huh7^A2) were kindly provided by Dr. Volker Lohmann (UniversitätsKlinikum Heidelberg, Molekulare Virologie). The Lunet-HlaA2-luc/neoET expressed ectopically HLA-A2 and a selectable HCV subgenomic RNA replicon of genotype 1b harboring replication-enhancing mutations in NS3 and NS4 (Con1-ET). The replicon also expresses the selectable marker neomycin phosphotransferase, which inactivates the cytotoxic drug G418. The expression of non-structural proteins was driven by the encephalomyocarditis virus IRES (Robinson, M., Yang, H., Peng B. et al. 2010. Antimicrobial Agents and Chemotherapy. 54(8):3099-3106; Pasetto, A., Frelin, L. et al. 2012. J immunol. 189:4510-4519). The replicon cells expressed the firefly luciferase gene fused to the selectable marker by ubiquitin. As control, the parenteral cell line, designated Lunet-HlaA2, was used.
(§1) Cells were seeded in flat bottom 96-well plates (Nuncleon™ Δ Surface, Denmark) at a density of 5 000 cells/well in 100 μL of culture medium without antibiotics (G418, puromycin and blasticidin). […] The final concentration of DMSO never exceeded 0.2%. AGSOL 1000-5-5, diluted in culture medium, was added at several concentrations: 0.01 ng/mL, 0.1 ng/mL, 1 ng/mL, 10 ng/mL, 0.1 μg/mL, 1 μg/mL, 10 μg/mL and 100 μg/mL. AGSOL 100-5-5 was added as described above, excluding the concentration 100 μg/mL. Medium without added cells and cells without any inhibitors constituted negative controls. Each concentration of drug was tested in 5 unique wells and the same protocol was carried out for Huh7^A2HCV^Rep and Huh7^A2 cell lines. Inhibitors were refreshed daily. The experimental assays were performed three times with similar results.
The Lunet-HlaA2 (Huh7^A2) cell line was only used as negative control in this assay. The firefly luciferase gene expressed by the replicon cells catalyses the mono-oxygenation of beetle luciferin according to the reaction described in the following reaction scheme:
At time-points 24, 48, 72 and 96 hours post-addition of inhibitors, culture plates were removed from incubator into laminar flow hood and an equal volume of Luciferase assay reagent to that of the culture medium in each well was added. Three minutes were allowed for complete cell lysis, and subsequently the luminescence was measured. Absorbance and luminescence were read by Infinite 200 PRO reader (Tecan Group Ltd, Maennedorf, Switzerland).
The HCV in vitro replication was quantified by measuring the reporter gene expression. The Huh7^A2HCV^Rep cell line expresses both the HCV replicon and the firefly luciferase gene. The measurement of luciferase correlates with the HCV replication activity.

[2] = system: Huh7^A2HCV^Rep and Huh7^A2 cell lines; experiment: MTT tetrazolium proliferation / cellular toxicity assay; format: cell-based
Experimental: as §1, with “Each concentration of drug was tested in 5 unique wells and the same protocol was carried out for Huh7^A2HCV^Rep and Huh7^A2 cell lines. Inhibitors were refreshed daily. The experimental assays were performed three times with similar results.” left out
The 3-[4,5-dimethyltiazol-2-yl]-2,5-diphenyl tetrazolium bromide is cleaved by mitochondrial dehydrogenases of viable cells, leading to purple formazan in the form of insoluble crystals in aqueous solutions but dissolved in acidified isopropanol. The resulting purple solution is spectrophotometrically measured. […]
At time-points 24, 48, 72 and 96 hours post-addition of inhibitors, culture plates were removed from incubator into laminar flow hood. […] The background absorbance of multi-well plates was measured at 690 nm and was subtracted from the 570 nm values. Results were presented as the percentage of viability per condition (inhibitor/concentration) and the absorbance (A570 nm−A690 nm) per time-point for each inhibitor and per cell line. […]

Structure (SMILES): CC(C)(C)NC(=O)N[C@H](C(=O)N1C[C@H]2[C@@H]([C@H]1C(=O)NC(CC1CCC1)C(=O)C(N)=O)C2(C)C)C(C)(C)C (stereo partly drawn) [Boceprevir]
- inhibition at 0.5 µM ([1]; 24 hpa): ~85%
- inhibition at 0.5 µM ([1]; 48 hpa): ~90%
- inhibition at 0.5 µM ([1]; 72 hpa): ~90%
- inhibition at 0.5 µM ([1]; 96 hpa): ~90%
- cellular viability compared to cells grown without inhibitor ([2]; Boceprevir 100-500 nM, throughout the experiments (24-96 hpa), both cell lines): ≥ 75%
- cellular toxicity by kinetic analysis of absorbance values ([2]; Boceprevir, 24, 48, 72 and 96 hours post-addition): did not cause any markedly cellular toxicity
